# Source: US10183014B2, “Ocular formulations for drug-delivery and protection of the anterior segment of the eye” (PanOptica, Inc., priority 2014, dated 2019)
# Read-outs that look alike come from different tables or passages of the source.
# Columns and labels:
# [1] = Ocular pharmacokinetics of formulations, Example 20-5; format: in vivo, Dutch Belted rabbits; conditions: TRIS 0.60%, glycerol 2%, HEC 0.2%, HPMC 0.08%, Vitamin K3 1 μM, 1 hr post dose on Day 5
# Procedure: The study design (Table 19-1) consisted of forty-seven (47) Dutch Belted rabbits, each receiving a 30 μL bilateral topical ocular dose. Various suspension formulations of the present application were evaluated and compared against a cyclodextrin-based eye drops solution (Control Group 1, Table 19-1). Formula II or Compound-I was used in the test suspensions as well as the Eye Drops solution.
# Ocular sampling occurred one hour following the first daily dose on Day 5 for all groups. Whole blood samples using K2EDTA as an anticoagulant were collected from all animals on Day 5, 1 hour post dose. The whole blood was placed on ice until samples were spun in a centrifuge to separate the plasma. Aqueous humor, conjunctiva, cornea, central retina, peripheral retina, central choroid, and peripheral choroid samples were collected following necropsy. Samples were then frozen at −70° C. or lower. For all Groups 1-15, plasma, central retina, central choroid, and cornea samples were assayed. For Group 5 only, samples were analyzed for Vitamin K3.
# An analytical method for the analysis of Vitamin K3 was determined in plasma, central retina, central choroid, and cornea samples from Group 5 animals. A calibration curve prepared in control vitreous humor was used to determine the concentration of Vitamin K3. Internal standard (IS) responses were inconsistent for the central choroid and plasma samples. Thus, positive plasma results were likely due to the reduced IS response.
# MAP4K4 (HGK) = MAP4K4 (HGK) (Homo sapiens, UniProt O95819); test: In vitro inhibition of tyrosine kinases; format: biochemical; conditions: read-out: Mean % Inhibition at 1 μM Compound-I; 1 μM (568.9 ng/mL)
# FLT4 (VEGFR-3) = FLT4 (VEGFR-3) (Homo sapiens, UniProt P35916); test: In vitro inhibition of tyrosine kinases; format: biochemical; conditions: read-out: Mean % Inhibition at 1 μM Compound-I; 1 μM (568.9 ng/mL)
# SNF1LK2 = SNF1LK2 (Homo sapiens, UniProt Q9H0K1); test: In vitro inhibition of tyrosine kinases; format: biochemical; conditions: read-out: Mean % Inhibition at 1 μM Compound-I; 1 μM (568.9 ng/mL)
# pathologic angiogenesis = test: Pathologic angiogenesis, murine cornea model, systemic administration; format: in vivo
# ABL1 E255K = ABL1 E255K (Homo sapiens, UniProt P00519, E255K); test: In vitro inhibition of tyrosine kinases; format: biochemical; conditions: read-out: Mean % Inhibition at 1 μM Compound-I; 1 μM (568.9 ng/mL)
# ABL1 T315I = ABL1 T315I (Homo sapiens, UniProt P00519, T315I); test: In vitro inhibition of tyrosine kinases; format: biochemical; conditions: read-out: Mean % Inhibition at 1 μM Compound-I; 1 μM (568.9 ng/mL)
# [2] = system: retinal and choroidal neovascularization; test: Pathologic retinal and choroidal neovascularization, rodent models, topical ocular delivery; format: in vivo
# LYN A = LYN A (Homo sapiens, UniProt P07948); test: In vitro inhibition of tyrosine kinases; format: biochemical; conditions: read-out: Mean % Inhibition at 1 μM Compound-I; 1 μM (568.9 ng/mL)
# EPHA-1 = EPHA-1 (Homo sapiens, UniProt P21709); test: In vitro inhibition of tyrosine kinases; format: biochemical; conditions: read-out: Mean % Inhibition at 1 μM Compound-I; 1 μM (568.9 ng/mL)
# EPHA-1, sequence (P21709 26-976, species assumed): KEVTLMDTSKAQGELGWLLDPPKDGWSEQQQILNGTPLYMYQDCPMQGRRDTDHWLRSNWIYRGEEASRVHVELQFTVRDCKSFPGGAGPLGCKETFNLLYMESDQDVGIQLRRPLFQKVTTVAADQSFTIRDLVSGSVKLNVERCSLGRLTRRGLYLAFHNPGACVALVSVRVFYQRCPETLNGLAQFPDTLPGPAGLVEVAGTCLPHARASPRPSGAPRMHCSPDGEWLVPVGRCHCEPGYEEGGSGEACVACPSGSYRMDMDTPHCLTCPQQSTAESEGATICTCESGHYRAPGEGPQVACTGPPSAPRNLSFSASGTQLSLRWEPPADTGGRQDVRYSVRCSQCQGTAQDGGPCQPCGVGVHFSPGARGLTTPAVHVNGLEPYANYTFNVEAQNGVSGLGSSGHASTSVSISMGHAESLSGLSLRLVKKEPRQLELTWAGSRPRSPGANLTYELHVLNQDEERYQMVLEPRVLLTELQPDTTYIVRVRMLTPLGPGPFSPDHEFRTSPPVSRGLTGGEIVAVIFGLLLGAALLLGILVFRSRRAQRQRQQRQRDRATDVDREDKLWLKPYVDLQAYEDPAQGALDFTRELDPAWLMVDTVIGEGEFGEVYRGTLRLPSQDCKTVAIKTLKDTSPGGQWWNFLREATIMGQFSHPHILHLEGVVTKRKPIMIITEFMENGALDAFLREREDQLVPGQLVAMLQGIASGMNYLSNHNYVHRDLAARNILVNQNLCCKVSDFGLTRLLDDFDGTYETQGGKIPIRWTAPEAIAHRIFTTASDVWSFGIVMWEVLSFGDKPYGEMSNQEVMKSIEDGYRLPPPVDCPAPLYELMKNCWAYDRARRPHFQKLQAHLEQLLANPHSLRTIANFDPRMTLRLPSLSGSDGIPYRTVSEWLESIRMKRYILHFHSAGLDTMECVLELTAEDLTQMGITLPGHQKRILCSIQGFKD
# SNF1LK2, sequence (Q9H0K1 whole entry, species assumed): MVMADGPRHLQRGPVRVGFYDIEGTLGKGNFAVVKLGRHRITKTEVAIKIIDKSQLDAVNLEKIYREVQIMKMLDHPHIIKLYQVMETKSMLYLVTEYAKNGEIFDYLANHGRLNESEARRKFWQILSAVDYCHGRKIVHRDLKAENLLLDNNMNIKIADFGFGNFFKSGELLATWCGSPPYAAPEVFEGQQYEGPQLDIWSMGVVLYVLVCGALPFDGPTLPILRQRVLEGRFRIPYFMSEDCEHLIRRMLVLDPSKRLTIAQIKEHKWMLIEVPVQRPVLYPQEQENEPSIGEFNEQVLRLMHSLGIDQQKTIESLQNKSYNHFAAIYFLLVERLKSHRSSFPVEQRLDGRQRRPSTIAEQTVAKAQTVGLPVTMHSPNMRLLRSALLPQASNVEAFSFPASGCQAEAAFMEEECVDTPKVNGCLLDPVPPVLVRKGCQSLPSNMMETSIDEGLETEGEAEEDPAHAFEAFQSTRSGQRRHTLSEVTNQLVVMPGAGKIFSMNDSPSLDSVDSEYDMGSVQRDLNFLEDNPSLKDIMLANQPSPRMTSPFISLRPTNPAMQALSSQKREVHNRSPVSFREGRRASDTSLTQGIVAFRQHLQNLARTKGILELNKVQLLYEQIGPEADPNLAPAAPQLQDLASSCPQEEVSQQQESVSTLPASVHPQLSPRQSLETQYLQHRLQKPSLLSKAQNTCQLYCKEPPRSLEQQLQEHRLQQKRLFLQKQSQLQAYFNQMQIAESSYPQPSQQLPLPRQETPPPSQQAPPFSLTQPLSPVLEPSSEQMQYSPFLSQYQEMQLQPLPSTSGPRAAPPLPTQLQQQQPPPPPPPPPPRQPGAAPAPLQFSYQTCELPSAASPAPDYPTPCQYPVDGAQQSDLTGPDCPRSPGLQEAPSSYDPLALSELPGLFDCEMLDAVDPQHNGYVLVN
# MAP4K4 (HGK), sequence (O95819 whole entry, species assumed): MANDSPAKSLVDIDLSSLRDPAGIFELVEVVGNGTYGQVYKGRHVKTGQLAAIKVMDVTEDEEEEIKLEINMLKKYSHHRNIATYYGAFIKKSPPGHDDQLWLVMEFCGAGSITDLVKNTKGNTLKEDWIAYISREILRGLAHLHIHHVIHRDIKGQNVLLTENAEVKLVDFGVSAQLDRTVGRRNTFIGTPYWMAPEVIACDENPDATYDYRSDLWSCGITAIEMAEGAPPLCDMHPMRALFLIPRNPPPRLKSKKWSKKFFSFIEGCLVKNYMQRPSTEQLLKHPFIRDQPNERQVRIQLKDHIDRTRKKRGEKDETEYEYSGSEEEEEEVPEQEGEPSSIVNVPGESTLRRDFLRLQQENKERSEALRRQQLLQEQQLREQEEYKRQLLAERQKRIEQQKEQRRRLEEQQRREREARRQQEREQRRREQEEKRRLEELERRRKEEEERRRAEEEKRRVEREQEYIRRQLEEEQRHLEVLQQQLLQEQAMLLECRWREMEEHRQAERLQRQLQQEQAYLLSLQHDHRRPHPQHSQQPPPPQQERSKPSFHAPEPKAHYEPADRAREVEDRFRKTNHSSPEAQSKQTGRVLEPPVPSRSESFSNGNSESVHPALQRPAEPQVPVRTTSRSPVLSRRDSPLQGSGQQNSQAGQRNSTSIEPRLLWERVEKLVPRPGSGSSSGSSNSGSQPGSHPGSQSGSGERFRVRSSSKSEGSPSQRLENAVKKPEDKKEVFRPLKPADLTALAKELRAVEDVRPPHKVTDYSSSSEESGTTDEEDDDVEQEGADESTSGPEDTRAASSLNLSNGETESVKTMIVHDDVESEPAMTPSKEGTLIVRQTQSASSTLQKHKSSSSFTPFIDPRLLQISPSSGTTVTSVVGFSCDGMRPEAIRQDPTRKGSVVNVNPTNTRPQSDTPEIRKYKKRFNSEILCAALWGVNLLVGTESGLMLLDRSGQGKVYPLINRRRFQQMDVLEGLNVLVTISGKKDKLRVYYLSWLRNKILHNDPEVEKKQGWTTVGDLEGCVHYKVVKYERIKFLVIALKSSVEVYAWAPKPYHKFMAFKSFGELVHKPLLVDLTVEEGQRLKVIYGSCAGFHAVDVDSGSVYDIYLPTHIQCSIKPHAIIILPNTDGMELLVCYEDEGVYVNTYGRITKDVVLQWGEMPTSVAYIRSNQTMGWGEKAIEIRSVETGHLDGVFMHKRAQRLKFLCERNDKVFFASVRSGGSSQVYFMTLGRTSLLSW
# FLT4 (VEGFR-3), sequence (P35916 25-1363, species assumed): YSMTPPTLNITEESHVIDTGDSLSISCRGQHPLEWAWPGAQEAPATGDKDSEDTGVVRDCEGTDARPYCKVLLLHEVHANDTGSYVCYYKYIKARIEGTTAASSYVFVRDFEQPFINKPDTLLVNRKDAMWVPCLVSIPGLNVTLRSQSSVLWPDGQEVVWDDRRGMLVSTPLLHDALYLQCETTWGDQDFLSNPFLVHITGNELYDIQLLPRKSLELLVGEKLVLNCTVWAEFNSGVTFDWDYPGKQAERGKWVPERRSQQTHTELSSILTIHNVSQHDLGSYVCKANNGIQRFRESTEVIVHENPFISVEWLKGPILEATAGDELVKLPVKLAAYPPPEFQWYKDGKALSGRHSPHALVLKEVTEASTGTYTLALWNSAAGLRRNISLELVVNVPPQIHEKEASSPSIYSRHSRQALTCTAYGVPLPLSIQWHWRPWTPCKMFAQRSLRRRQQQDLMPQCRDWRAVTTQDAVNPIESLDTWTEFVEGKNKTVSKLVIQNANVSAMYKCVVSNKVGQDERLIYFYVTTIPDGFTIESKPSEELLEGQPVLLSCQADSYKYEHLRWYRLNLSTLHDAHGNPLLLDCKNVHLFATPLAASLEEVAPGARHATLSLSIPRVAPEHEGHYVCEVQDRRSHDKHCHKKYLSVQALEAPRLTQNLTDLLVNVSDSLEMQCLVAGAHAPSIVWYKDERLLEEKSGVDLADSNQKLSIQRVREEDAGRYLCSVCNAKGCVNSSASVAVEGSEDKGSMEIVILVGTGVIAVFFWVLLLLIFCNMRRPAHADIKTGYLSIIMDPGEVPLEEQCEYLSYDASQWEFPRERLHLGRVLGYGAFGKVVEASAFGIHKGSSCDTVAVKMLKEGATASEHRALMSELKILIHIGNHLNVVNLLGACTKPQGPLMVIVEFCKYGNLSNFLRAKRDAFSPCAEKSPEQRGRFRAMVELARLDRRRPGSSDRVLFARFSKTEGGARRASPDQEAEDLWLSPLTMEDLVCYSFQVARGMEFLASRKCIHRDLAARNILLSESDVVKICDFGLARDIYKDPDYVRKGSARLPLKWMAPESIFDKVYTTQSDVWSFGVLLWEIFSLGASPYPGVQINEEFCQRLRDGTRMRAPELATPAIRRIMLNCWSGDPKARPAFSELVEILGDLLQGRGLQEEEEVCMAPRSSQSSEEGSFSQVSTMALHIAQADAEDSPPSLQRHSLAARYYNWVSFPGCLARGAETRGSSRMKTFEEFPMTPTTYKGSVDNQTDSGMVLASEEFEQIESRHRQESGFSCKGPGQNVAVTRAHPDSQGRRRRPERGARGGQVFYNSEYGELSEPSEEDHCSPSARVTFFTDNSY
# LYN A, sequence (P07948 whole entry, species assumed): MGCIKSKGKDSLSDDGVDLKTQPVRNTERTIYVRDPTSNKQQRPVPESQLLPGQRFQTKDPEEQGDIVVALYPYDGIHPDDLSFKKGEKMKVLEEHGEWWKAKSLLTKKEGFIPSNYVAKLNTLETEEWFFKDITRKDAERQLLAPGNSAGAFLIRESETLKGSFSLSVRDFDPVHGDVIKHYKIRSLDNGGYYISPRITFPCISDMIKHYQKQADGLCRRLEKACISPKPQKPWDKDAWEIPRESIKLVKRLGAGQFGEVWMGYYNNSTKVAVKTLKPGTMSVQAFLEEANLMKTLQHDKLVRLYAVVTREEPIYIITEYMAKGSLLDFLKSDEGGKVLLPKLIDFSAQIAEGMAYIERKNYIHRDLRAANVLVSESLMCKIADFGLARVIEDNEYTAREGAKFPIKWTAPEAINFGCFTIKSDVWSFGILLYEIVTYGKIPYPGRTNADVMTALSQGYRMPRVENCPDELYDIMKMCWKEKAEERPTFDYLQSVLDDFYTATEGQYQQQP
smiles,measurement,setting,value
"Cl.NC(=O)c1c(OCc2c(F)cc(Br)cc2F)nsc1NC(=O)NCCCCN1CCCC1 [Compound-I, 3-[(4-bromo-2,6-difluorophenyl)methoxy]-5-[[[[4-(1-pyrrolidinyl)butyl]amino]carbonyl]amino]-4-isothiazolecarboxamide hydrochloride]",Plasma concentration,"[1]; Group 3: 4 mg/mL suspension, 3 μm particles, pH 6, QD for 4 days",7.04 nM
same,concentration at 1 h,"[1]; Group 3: 4 mg/mL suspension, 3 μm particles, pH 6, QD for 4 days, read-out: Central Choroid concentration",159 nM
same,concentration at 1 h,"[1]; Group 3: 4 mg/mL suspension, 3 μm particles, pH 6, QD for 4 days, read-out: Central Retina concentration",92.8 nM
same,concentration at 1 h,"[1]; Group 3: 4 mg/mL suspension, 3 μm particles, pH 6, QD for 4 days, read-out: Cornea concentration",10200 nM
same,Plasma concentration,"[1]; Group 4: 4 mg/mL suspension (Control), 50 μm particles (Native), pH 6, QD for 4 days",5.98 nM
same,concentration at 1 h,"[1]; Group 4: 4 mg/mL suspension (Control), 50 μm particles (Native), pH 6, QD for 4 days, read-out: Central Choroid concentration",128 nM
same,concentration at 1 h,"[1]; Group 4: 4 mg/mL suspension (Control), 50 μm particles (Native), pH 6, QD for 4 days, read-out: Central Retina concentration",73.5 nM
same,concentration at 1 h,"[1]; Group 4: 4 mg/mL suspension (Control), 50 μm particles (Native), pH 6, QD for 4 days, read-out: Cornea concentration",3930 nM
same,Plasma concentration,"[1]; Group 6: 4 mg/mL suspension, 50 μm particles, pH 6, BID for 4 days",4.15 nM
same,concentration at 1 h,"[1]; Group 6: 4 mg/mL suspension, 50 μm particles, pH 6, BID for 4 days, read-out: Central Choroid concentration",199 nM
same,concentration at 1 h,"[1]; Group 6: 4 mg/mL suspension, 50 μm particles, pH 6, BID for 4 days, read-out: Central Retina concentration",44.1 nM
same,concentration at 1 h,"[1]; Group 6: 4 mg/mL suspension, 50 μm particles, pH 6, BID for 4 days, read-out: Cornea concentration",6410 nM
same,Plasma concentration,"[1]; Group 8: 1 mg/mL suspension, 50 μm particles, pH 6, BID for 4 days",2.11 nM
same,concentration at 1 h,"[1]; Group 8: 1 mg/mL suspension, 50 μm particles, pH 6, BID for 4 days, read-out: Central Choroid concentration",70.8 nM
same,concentration at 1 h,"[1]; Group 8: 1 mg/mL suspension, 50 μm particles, pH 6, BID for 4 days, read-out: Central Retina concentration",34.2 nM
same,concentration at 1 h,"[1]; Group 8: 1 mg/mL suspension, 50 μm particles, pH 6, BID for 4 days, read-out: Cornea concentration",1720 nM
same,Plasma concentration,"[1]; Group 10: 2 mg/mL suspension, 50 μm particles, pH 6, BID for 4 days",3.76 nM
same,concentration at 1 h,"[1]; Group 10: 2 mg/mL suspension, 50 μm particles, pH 6, BID for 4 days, read-out: Central Retina concentration",50.7 nM
same,Plasma concentration,"[1]; Group 13 (different batch of Compound-I): 4 mg/mL suspension, 50 μm particles, pH 6, QD for 4 days",7.09 nM
same,concentration at 1 h,"[1]; Group 13 (different batch of Compound-I): 4 mg/mL suspension, 50 μm particles, pH 6, QD for 4 days, read-out: Central Retina concentration",76.6 nM
same,concentration at 1 h,"[1]; Group 13 (different batch of Compound-I): 4 mg/mL suspension, 50 μm particles, pH 6, QD for 4 days, read-out: Cornea concentration",8550 nM
same,Plasma concentration,"[1]; Group 14 (different batch of Compound-I): 4 mg/mL suspension, 50 μm particles, pH 6, QD for 4 days",2.68 nM
same,concentration at 1 h,"[1]; Group 14 (different batch of Compound-I): 4 mg/mL suspension, 50 μm particles, pH 6, QD for 4 days, read-out: Central Choroid concentration",203 nM
same,concentration at 1 h,"[1]; Group 14 (different batch of Compound-I): 4 mg/mL suspension, 50 μm particles, pH 6, QD for 4 days, read-out: Central Retina concentration",38.4 nM
same,concentration at 1 h,"[1]; Group 14 (different batch of Compound-I): 4 mg/mL suspension, 50 μm particles, pH 6, QD for 4 days, read-out: Cornea concentration",3880 nM
same,Plasma concentration,"[1]; Group 15 (different batch of Compound-I): 4 mg/mL suspension, 50 μm particles, pH 6, QD for 4 days",4.69 nM
same,concentration at 1 h,"[1]; Group 15 (different batch of Compound-I): 4 mg/mL suspension, 50 μm particles, pH 6, QD for 4 days, read-out: Central Choroid concentration",196 nM
same,concentration at 1 h,"[1]; Group 15 (different batch of Compound-I): 4 mg/mL suspension, 50 μm particles, pH 6, QD for 4 days, read-out: Central Retina concentration",63 nM
same,concentration at 1 h,"[1]; Group 15 (different batch of Compound-I): 4 mg/mL suspension, 50 μm particles, pH 6, QD for 4 days, read-out: Cornea concentration",4230 nM
same,inhibition at 1 µM,MAP4K4 (HGK),100%
same,inhibition at 1 µM,FLT4 (VEGFR-3),95%
same,inhibition at 1 µM,SNF1LK2,82%
same,Pathologic angiogenesis,pathologic angiogenesis,inhibit
same,inhibition at 1 µM,ABL1 E255K,90%
same,inhibition at 1 µM,ABL1 T315I,101%
same,Pathologic retinal and choroidal neovascularization,[2],significant inhibition
same,inhibition at 1 µM,LYN A,81%
same,inhibition at 1 µM,EPHA-1,81%
